± gives the expanded uncertainty stated by the source.
Test: activity coefficient (dimensionless); of the first substance listed, at infinite dilution; xn = mol fraction of the nth substance listed
Conditions: Liquid, Chromatography, x1 = 0

Structure (SMILES) | activity coefficient (322.85 K) | activity coefficient (332.65 K) | activity coefficient (343.15 K)
CC(C)O [propan-2-ol] + CCCCCCCCCC[N+](C)(C)C.O=S(=O)([N-]S(=O)(=O)C(F)(F)F)C(F)(F)F | 1.38 ± 0.05 | 1.28 ± 0.04 | 1.15 ± 0.04
CC(C)O [propan-2-ol] + CCCCCCCC[N+](C)(C)C.O=S(=O)([N-]S(=O)(=O)C(F)(F)F)C(F)(F)F | 1.63 ± 0.07 |  | 1.32 ± 0.05
CC(C)O [propan-2-ol] + CCCCCCCC[N+](CCCCCCCC)(CCCCCCCC)CCCCCCCC.O=S(=O)([N-]S(=O)(=O)C(F)(F)F)C(F)(F)F | 1.21 ± 0.04 | 1.13 ± 0.03 | 1.05 ± 0.03
CC(C)O [propan-2-ol] + CCCC[N+](C)(CCCC)CCCC.O=S(=O)([N-]S(=O)(=O)C(F)(F)F)C(F)(F)F | 1.67 ± 0.07 | 1.54 ± 0.06 | 1.4 ± 0.05
CCC=O [propanal] + CCCCCCCCCC[N+](C)(C)C.O=S(=O)([N-]S(=O)(=O)C(F)(F)F)C(F)(F)F | 0.4 ± 0.03 | 0.42 ± 0.03 | 0.41 ± 0.03
CCC=O [propanal] + CCCCCCCC[N+](C)(C)C.O=S(=O)([N-]S(=O)(=O)C(F)(F)F)C(F)(F)F | 0.48 ± 0.03 | 0.47 ± 0.03 | 0.46 ± 0.03
CCC=O [propanal] + CCCCCCCC[N+](CCCCCCCC)(CCCCCCCC)CCCCCCCC.O=S(=O)([N-]S(=O)(=O)C(F)(F)F)C(F)(F)F | 0.25 ± 0.04 | 0.35 ± 0.04 | 0.35 ± 0.04
CCC=O [propanal] + CCCC[N+](C)(CCCC)CCCC.O=S(=O)([N-]S(=O)(=O)C(F)(F)F)C(F)(F)F | 0.49 ± 0.03 | 0.49 ± 0.03 | 0.5 ± 0.03
c1ccncc1 [pyridine] + CCCCCCCCCC[N+](C)(C)C.O=S(=O)([N-]S(=O)(=O)C(F)(F)F)C(F)(F)F | 0.46 ± 0.03 | 0.47 ± 0.03 | 0.47 ± 0.03
c1ccncc1 [pyridine] + CCCCCCCC[N+](C)(C)C.O=S(=O)([N-]S(=O)(=O)C(F)(F)F)C(F)(F)F | 0.45 ± 0.03 | 0.44 ± 0.03 | 0.43 ± 0.03
c1ccncc1 [pyridine] + CCCCCCCC[N+](CCCCCCCC)(CCCCCCCC)CCCCCCCC.O=S(=O)([N-]S(=O)(=O)C(F)(F)F)C(F)(F)F | 0.33 ± 0.04 | 0.33 ± 0.04 | 0.34 ± 0.04
c1ccncc1 [pyridine] + CCCC[N+](C)(CCCC)CCCC.O=S(=O)([N-]S(=O)(=O)C(F)(F)F)C(F)(F)F | 0.55 ± 0.03 | 0.56 ± 0.03 | 0.56 ± 0.03
ClC(Cl)(Cl)Cl [tetrachloromethane] + CCCCCCCCCC[N+](C)(C)C.O=S(=O)([N-]S(=O)(=O)C(F)(F)F)C(F)(F)F | 1.46 ± 0.06 | 1.5 ± 0.06 | 1.47 ± 0.06
ClC(Cl)(Cl)Cl [tetrachloromethane] + CCCCCCCC[N+](C)(C)C.O=S(=O)([N-]S(=O)(=O)C(F)(F)F)C(F)(F)F | 1.63 ± 0.07 | 1.63 ± 0.07 | 1.6 ± 0.06
ClC(Cl)(Cl)Cl [tetrachloromethane] + CCCCCCCC[N+](CCCCCCCC)(CCCCCCCC)CCCCCCCC.O=S(=O)([N-]S(=O)(=O)C(F)(F)F)C(F)(F)F | 0.63 ± 0.03 | 0.64 ± 0.03 | 0.64 ± 0.03
ClC(Cl)(Cl)Cl [tetrachloromethane] + CCCC[N+](C)(CCCC)CCCC.O=S(=O)([N-]S(=O)(=O)C(F)(F)F)C(F)(F)F | 2.11 ± 0.1 | 2.11 ± 0.1 | 2.07 ± 0.09
c1ccsc1 [thiophene] + CCCCCCCCCC[N+](C)(C)C.O=S(=O)([N-]S(=O)(=O)C(F)(F)F)C(F)(F)F | 0.65 ± 0.03 | 0.7 ± 0.03 | 0.68 ± 0.03

Structure (SMILES) | activity coefficient (322.85 K) | activity coefficient (332.65 K) | activity coefficient (343.15 K)
c1ccsc1 [thiophene] + CCCCCCCC[N+](C)(C)C.O=S(=O)([N-]S(=O)(=O)C(F)(F)F)C(F)(F)F | 0.69 ± 0.03 | 0.69 ± 0.03 | 0.69 ± 0.03
c1ccsc1 [thiophene] + CCCCCCCC[N+](CCCCCCCC)(CCCCCCCC)CCCCCCCC.O=S(=O)([N-]S(=O)(=O)C(F)(F)F)C(F)(F)F | 0.4 ± 0.03 | 0.4 ± 0.03 | 0.41 ± 0.03
c1ccsc1 [thiophene] + CCCC[N+](C)(CCCC)CCCC.O=S(=O)([N-]S(=O)(=O)C(F)(F)F)C(F)(F)F | 0.86 ± 0.03 | 0.88 ± 0.03 | 0.87 ± 0.03
Cc1ccccc1 [toluene] + CCCCCCCCCC[N+](C)(C)C.O=S(=O)([N-]S(=O)(=O)C(F)(F)F)C(F)(F)F | 0.84 ± 0.03 | 0.89 ± 0.03 | 0.89 ± 0.03
Cc1ccccc1 [toluene] + CCCCCCCC[N+](C)(C)C.O=S(=O)([N-]S(=O)(=O)C(F)(F)F)C(F)(F)F | 0.97 ± 0.03 | 0.98 ± 0.03 | 0.98 ± 0.03
Cc1ccccc1 [toluene] + CCCCCCCC[N+](CCCCCCCC)(CCCCCCCC)CCCCCCCC.O=S(=O)([N-]S(=O)(=O)C(F)(F)F)C(F)(F)F | 0.47 ± 0.03 | 0.48 ± 0.03 | 0.49 ± 0.03
Cc1ccccc1 [toluene] + CCCC[N+](C)(CCCC)CCCC.O=S(=O)([N-]S(=O)(=O)C(F)(F)F)C(F)(F)F | 1.13 ± 0.03 | 1.19 ± 0.04 | 1.19 ± 0.04
ClC(Cl)Cl [trichloromethane] + CCCCCCCCCC[N+](C)(C)C.O=S(=O)([N-]S(=O)(=O)C(F)(F)F)C(F)(F)F | 0.65 ± 0.03 | 0.68 ± 0.03 | 0.68 ± 0.03
ClC(Cl)Cl [trichloromethane] + CCCCCCCC[N+](C)(C)C.O=S(=O)([N-]S(=O)(=O)C(F)(F)F)C(F)(F)F | 0.63 ± 0.03 | 0.65 ± 0.03 | 0.66 ± 0.03
ClC(Cl)Cl [trichloromethane] + CCCCCCCC[N+](CCCCCCCC)(CCCCCCCC)CCCCCCCC.O=S(=O)([N-]S(=O)(=O)C(F)(F)F)C(F)(F)F | 0.34 ± 0.04 | 0.35 ± 0.04 | 0.36 ± 0.04
ClC(Cl)Cl [trichloromethane] + CCCC[N+](C)(CCCC)CCCC.O=S(=O)([N-]S(=O)(=O)C(F)(F)F)C(F)(F)F | 0.84 ± 0.03 | 0.87 ± 0.03 | 0.88 ± 0.03
CCN(CC)CC [triethylamine] + CCCCCCCCCC[N+](C)(C)C.O=S(=O)([N-]S(=O)(=O)C(F)(F)F)C(F)(F)F | 2.17 ± 0.1 | 2.4 ± 0.11 | 2.31 ± 0.1
CCN(CC)CC [triethylamine] + CCCCCCCC[N+](CCCCCCCC)(CCCCCCCC)CCCCCCCC.O=S(=O)([N-]S(=O)(=O)C(F)(F)F)C(F)(F)F | 1.03 ± 0.03 | 1.05 ± 0.03 | 1.02 ± 0.03
CCCCCCCCCCC [undecane] + CCCCCCCCCC[N+](C)(C)C.O=S(=O)([N-]S(=O)(=O)C(F)(F)F)C(F)(F)F | 12.4 ± 0.57 | 12.2 ± 0.56 | 11.4 ± 0.52
CCCCCCCCCCC [undecane] + CCCCCCCC[N+](C)(C)C.O=S(=O)([N-]S(=O)(=O)C(F)(F)F)C(F)(F)F | 25.8 ± 1.2 | 23.7 ± 1.1 | 21.1 ± 0.98
CCCCCCCCCCC [undecane] + CCCCCCCC[N+](CCCCCCCC)(CCCCCCCC)CCCCCCCC.O=S(=O)([N-]S(=O)(=O)C(F)(F)F)C(F)(F)F |  |  | 2.54 ± 0.12
CCCCCCCCCCC [undecane] + CCCC[N+](C)(CCCC)CCCC.O=S(=O)([N-]S(=O)(=O)C(F)(F)F)C(F)(F)F | 25.7 ± 1.2 | 24.8 ± 1.1 | 22.8 ± 1.1
